Legend:
CacKam [1] = molecular target: T1, CacKam (Catenulispora acidiphila, UniProt C7Q5P8, W203A); assay: biochemical; format: binding
T1 construct: gene Caci_9046; full length 250 residues, N-terminal hexahistidine tag with thrombin site kept; E. coli BL21 (DE3)
Excerpt: (§1) isothermal titration calorimetry on CacKam

CacKam [2] = molecular target: T2, CacKam (Catenulispora acidiphila, UniProt C7Q5P8, W113F); assay: biochemical; format: binding
T2 construct: gene Caci_9046; full length 250 residues, N-terminal hexahistidine tag with thrombin site kept; E. coli BL21 (DE3)
Excerpt: as §1

CacKam [3] = molecular target: T3, CacKam (Catenulispora acidiphila, UniProt C7Q5P8, S201A); assay: biochemical
T3 construct: gene Caci_9046

CacKam [4] = molecular target: T4, CacKam (Catenulispora acidiphila, UniProt C7Q5P8); conditions: 1 mM SAM; E. coli 30S subunits; 10 mM MgCl2; pH 7.5; 37 °C
T4 construct: gene Caci_9046

CacKam [5] = molecular target: T5, CacKam (Catenulispora acidiphila, UniProt C7Q5P8, E94A); assay: biochemical
T5 construct: gene Caci_9046
T5 sequence (C7Q5P8 entry or part of it E94A): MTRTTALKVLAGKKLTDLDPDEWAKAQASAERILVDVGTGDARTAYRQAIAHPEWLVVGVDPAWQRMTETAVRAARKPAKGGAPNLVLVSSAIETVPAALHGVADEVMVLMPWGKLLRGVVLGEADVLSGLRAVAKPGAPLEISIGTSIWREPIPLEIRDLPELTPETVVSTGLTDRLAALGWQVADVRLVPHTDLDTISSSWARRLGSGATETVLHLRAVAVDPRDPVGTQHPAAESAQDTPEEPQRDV

T2 sequence (C7Q5P8 entry or part of it W113F): as the sequence (C7Q5P8 entry or part of it E94A) above
T1 sequence (C7Q5P8 entry or part of it W203A): as the sequence (C7Q5P8 entry or part of it E94A) above
T4 sequence (C7Q5P8 entry or part of it): as the sequence (C7Q5P8 entry or part of it E94A) above
T3 sequence (C7Q5P8 entry or part of it S201A): as the sequence (C7Q5P8 entry or part of it E94A) above

SMILES | Kd (CacKam [1]) [µM] | Kd (CacKam [2]) [µM] | Kd (CacKam [3]) [µM] | 30S methylation, reverse transcription primer extension (CacKam [4]) | Kd (CacKam [5]) [µM]
Nc1ncnc2c1ncn2[C@@H]1O[C@H](CSCC[C@H](N)C(=O)O)[C@@H](O)[C@H]1O [SAH] | 5.1 | 11 | – | – | –
C[S+](CC[C@H](N)C(=O)O)C[C@H]1O[C@@H](n2cnc3c(N)ncnc32)[C@H](O)[C@@H]1O (stereo partly shown) [SAM] | 68 | 103 | 110 | Methylation by the wild-type enzyme was essentially the same under each condition as expected | 29
